# Paper PMC11292009, “Mapping protein binding sites by photoreactive fragment pharmacophores” (Communications Chemistry, 2024)
# Columns and labels:
# Format in all cases: binding
# STAT5B-NTD [1] = system: T1, STAT5B-NTD; experiment: Intact MS photoaffinity labeling screen, STAT5B-NTD (365 nm, UHPLC-MS); conditions: for MS labeling percentage, STAT5B: STAT5B-NTD, 365 nm 10 min, no photocatalyst;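 on MS labeling percentage, STAT5B: 0.17 µL of 100 mM DMSO fragment stock added to the protein sample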
# T1 construct: His-SUMO (N, cleaved yes); made in house; host or cells: E. coli BL21 RILP
# Method in brief: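 UV irradiation at 365 nm for 10 min at 4 °C. Labeling read by intact-protein UHPLC-MS, positive ion mode, m/z 100–2000.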
# lysozyme (Lyo) = experiment: Intact protein MS photoaffinity labeling screen, lysozyme; conditions: intact protein MS after 10 min irradiation
# Method in brief: (§1)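 Labeling % derives from mass additions observed by intact protein MS on each well, measured without transfer from the plate; fragments, one per well, had been pre-incubated 15 min with protein.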
# BRD4-BD1 = system: T2, BRD4-BD1; experiment: Intact MS photoaffinity labeling screen, BRD4-BD1 (302 nm, LCMS-TOF); conditions: for MS labeling percentage, BRD4: BRD4-BD1, 302 nm 10 min
# T2 construct: screened the PhP library against the first bromodomain of BRD4 (BRD4-BD1); purchased GSK/GenScript
# Method in brief: (§2)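 Labeling detected as mass additions in deconvoluted intact-protein LCMS-TOF spectra. Protein at 1 μM in PBS was first mixed with one fragment per well on ice for 15 min, followed by 10 min UV exposure at 302 nm.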
# KRas^G12D = system: T3, KRas^G12D; experiment: Intact MS photoaffinity labeling screen, KRas G12D (302 nm, LCMS-TOF); conditions: for MS labeling percentage, KRas: KRas G12D, 302 nm 10 min
# T3 construct: purchased GSK/GenScript
# Method in brief: as §2
# STAT5B-NTD [2] = system: T1, STAT5B-NTD; experiment: Intact MS labeling screen, STAT5B-NTD conjugated with photocatalyst Ir-G2-PEG3-COOH (450 nm); conditions: 450 nm 10 min;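 further: 0.14 µL of 100 mM DMSO fragment stock added to the conjugate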
# Method in brief: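 Ir-G2-PEG3-COOH photocatalyst (10 eq) activated 30 min with EDC/NHS/BOP, then conjugated to STAT5B-NTD (7 µM) overnight at RT or 1 h at 37 °C in dark. PhP added, 1 h dark, then 450 nm irradiation 10 min at 4 °C; labeling read by intact LC-MS, positive ion mode, m/z 100–2000.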
# myoglobin (Myo) = experiment: Intact protein MS photoaffinity labeling screen, myoglobin; conditions: intact protein MS after 10 min irradiation
# Method in brief: as §1
# [3] = system: carbonic anhydrase II (CA); experiment: Intact protein MS photoaffinity labeling screen, carbonic anhydrase; conditions: intact protein MS after 10 min irradiation
# Method in brief: as §1
# [4] = sheet PhP, experimental hit status flag given as 0 or 1
# [5] = PhP library sheet "PhP", binary flag printed as 0 or 1, key not given
SMILES,"MS labeling percentage, STAT5B (STAT5B-NTD [1]) [%]",STAT5B-NTD (experimental hit status) (STAT5B-NTD [1]; [4]),"MS labeling percentage, Lyo (lysozyme (Lyo)) [%]","MS labeling percentage, BRD4 (BRD4-BD1) [%]",BRD4-BD1 (experimental hit status) (BRD4-BD1; [4]),"MS labeling percentage, KRas (KRas^G12D) [%]",KRAS-G12D (experimental hit status) (KRas^G12D; [4]),"MS labeling percentage, STAT5B+photocat (STAT5B-NTD [2]) [%]","MS labeling percentage, Myo (myoglobin (Myo)) [%]","MS labeling percentage, CA [3] [%]",STAT5B-NTD (experimental hit status) (STAT5B-NTD [1]; [5]),BRD4-BD1 (experimental hit status) (BRD4-BD1; [5]),KRAS-G12D (experimental hit status) (KRas^G12D; [5])
"Cn1cnnc1CCNC(=O)CCC1(C)N=N1 [PhP063, Cn1cnnc1CCNC(=O)CCC2(C)N=N2]",0,0,0,49.7,0,0.8,0,0.4,0.3,0.3,,,
"CC1(CCC(=O)NC(CO)Cc2c[nH]c3ccccc23)N=N1 (stereo not drawn) [PhP064, N1=NC1(C)CCC(=O)NC(CO)Cc(c[nH]2)c(c23)cccc3]",2.9,0,0.7,1.1,0,3.1,0,1.9,0.3,0.5,,,
"CC1(CCC(=O)NCCCc2nc[nH]n2)N=N1 [PhP066, N1=NC1(C)CCC(=O)NCCCc2nc[nH]n2]",0,0,0,0.3,0,0.2,0,0,0.3,0.3,,,
"Cc1cc2ncn(CC(O)CNC(=O)CCC3(C)N=N3)c2cc1C (stereo not drawn) [PhP067, Cc(c1)c(C)cc(c12)n(cn2)CC(O)CNC(=O)CCC3(C)N=N3]",2,0,0,0.8,0,0.6,0,0.3,0.5,0.2,,,
"COc1nc(C)cc(C)c1CNC(=O)CCC1(C)N=N1 [PhP068, COc1nc(C)cc(C)c1CNC(=O)CCC2(C)N=N2]",1,0,0,1,0,0,0,4.4,0.4,0.3,,,
"CC1(CCC(=O)NCCCc2nc3ccccc3[nH]2)N=N1 [PhP069, N1=NC1(C)CCC(=O)NCCCc(n2)[nH]c(c23)cccc3]",1,0,0,1.5,0,0.5,0,0.8,0.2,0.2,,,
"C[C@@H](NC(=O)CCC1(C)N=N1)[C@@H](O)c1cccc(O)c1 [PhP070, Oc(c1)cccc1[C@H](O)[C@@H](C)NC(=O)CCC2(C)N=N2]",1,0,1,0.3,0,0,0,4.2,0.1,0,,,
"Cc1nc2ccccc2n1CCNC(=O)CCC1(C)N=N1 [PhP073, c1cccc(c12)n(c(n2)C)CCNC(=O)CCC3(C)N=N3]",1,0,0,0.3,0,0.1,0,1.6,0.2,0,,,
"COc1cc(C)nc(NC(=O)CCC2(C)N=N2)n1 [PhP074, COc1cc(C)nc(n1)NC(=O)CCC2(C)N=N2]",1,0,0,0.4,0,0.4,0,1.8,0.4,0.7,,,
"CC1(CCC(=O)Nc2ccc3c(c2)NC(=O)CC3)N=N1 [PhP075, N1=NC1(C)CCC(=O)Nc(cc2)cc(c23)NC(=O)CC3]",2,0,0,1.3,0,0.2,0,0.5,0.1,0.2,,,
"CCc1cc(NC(=O)CCC2(C)N=N2)nc(C)n1 [PhP076, CCc1cc(nc(n1)C)NC(=O)CCC2(C)N=N2]",2,0,0,0.9,0,0.2,0,3.2,0.2,0.1,,,
"CC1CN(Cc2ccccc2NC(=O)CCC2(C)N=N2)CC(C)O1 (stereo not drawn) [PhP078, CC1CN(CC(O1)C)Cc2ccccc2NC(=O)CCC3(C)N=N3]",0,,0,0.4,,0,,0.7,0.2,0.4,0,0,0
"CC1(CCC(=O)N[C@@H](Cc2cccc(F)c2)CN2C(=O)c3ccccc3C2=O)N=N1 [PhP079, Fc(c1)cccc1C[C@H](NC(=O)CCC2(C)N=N2)CN(C3=O)C(=O)c(c34)cccc4]",0,,0.3,,,0.5,,1.2,0.4,0.5,0,0,0
